Reference: US8912209B2, “Rock inhibitors” (Amakem NV, priority 2010, dated 2014)

Key:
ROCK II = molecular target: T1, ROCK II (Homo sapiens, UniProt O75116); assay: ROCK II kinase inhibition, Method 1 Proqinase setup (33P radioisotopic protein kinase assay); type: biochemical; conditions: 33P radioisotopic assay, 1 μM ATP, read-out: IC50 Meth. 1
T1 construct: purchased Proqinase
Method: A ^33P radioisotopic protein kinase assay is used to determine the IC50 for inhibiting ROCK II. A final 50 μl reaction cocktail, containing 60 mM HEPES-NaOH (pH 7.5), 3 mM MgCl2, 3 mM MnCl2, 3 μM Na-orthovanadate, 1.2 mM DTT, 1 μM ATP, 50 μg/ml PEG20.000, 1% (v/v) DMSO, 1 μM ATP (approx. 3×10^5 cpm ^33P-γ-ATP), the substrate (Substrate: S6 peptide—2000 ng/well) and recombinant protein kinase (0.5 nM-2.5 ng/well) is mixed on a shaker and incubated at 30° C. for 80 minutes. The reaction is stopped by the addition of 50 μl of a 2% solution of H3PO4 and mixed on a shaker. After washing twice with 200 μl of a 0.9% solution of NaCl, the dry plate is counted.

ROCKα/ROCKII = molecular target: T2, ROCKα/ROCKII (Homo sapiens, UniProt O75116); assay: ROCK inhibition, Method 2 fluorescence polarization (FP) assay, ROCK IMAP Kit; type: biochemical; conditions: 10 μM ATP, read-out: IC50 Meth. 2
T2 construct: purchased Upstate Biotechnology 14-451

[1] = Stability assay in human plasma; type: in vitro ADME; conditions: 1 μM in human plasma, LC-MS/MS; read-out: t½ human plasma
Method: (§1) C.2.1. Stability Assay in Human and/or Rat Plasma
(§2) Compounds are incubated at a concentration of 1 μM in rat (mice or rabbit) or human plasma. Samples are taken at fixed time points and the remnant of compound is determined by LC-MS/MS after protein precipitation. Half life is expressed in minutes.

[2] = Stability assay in rat plasma; type: in vitro ADME; conditions: 1 μM in rat plasma, LC-MS/MS; read-out: t½ rat plasma
Method: as §1, §2

T1 sequence (O75116 whole entry): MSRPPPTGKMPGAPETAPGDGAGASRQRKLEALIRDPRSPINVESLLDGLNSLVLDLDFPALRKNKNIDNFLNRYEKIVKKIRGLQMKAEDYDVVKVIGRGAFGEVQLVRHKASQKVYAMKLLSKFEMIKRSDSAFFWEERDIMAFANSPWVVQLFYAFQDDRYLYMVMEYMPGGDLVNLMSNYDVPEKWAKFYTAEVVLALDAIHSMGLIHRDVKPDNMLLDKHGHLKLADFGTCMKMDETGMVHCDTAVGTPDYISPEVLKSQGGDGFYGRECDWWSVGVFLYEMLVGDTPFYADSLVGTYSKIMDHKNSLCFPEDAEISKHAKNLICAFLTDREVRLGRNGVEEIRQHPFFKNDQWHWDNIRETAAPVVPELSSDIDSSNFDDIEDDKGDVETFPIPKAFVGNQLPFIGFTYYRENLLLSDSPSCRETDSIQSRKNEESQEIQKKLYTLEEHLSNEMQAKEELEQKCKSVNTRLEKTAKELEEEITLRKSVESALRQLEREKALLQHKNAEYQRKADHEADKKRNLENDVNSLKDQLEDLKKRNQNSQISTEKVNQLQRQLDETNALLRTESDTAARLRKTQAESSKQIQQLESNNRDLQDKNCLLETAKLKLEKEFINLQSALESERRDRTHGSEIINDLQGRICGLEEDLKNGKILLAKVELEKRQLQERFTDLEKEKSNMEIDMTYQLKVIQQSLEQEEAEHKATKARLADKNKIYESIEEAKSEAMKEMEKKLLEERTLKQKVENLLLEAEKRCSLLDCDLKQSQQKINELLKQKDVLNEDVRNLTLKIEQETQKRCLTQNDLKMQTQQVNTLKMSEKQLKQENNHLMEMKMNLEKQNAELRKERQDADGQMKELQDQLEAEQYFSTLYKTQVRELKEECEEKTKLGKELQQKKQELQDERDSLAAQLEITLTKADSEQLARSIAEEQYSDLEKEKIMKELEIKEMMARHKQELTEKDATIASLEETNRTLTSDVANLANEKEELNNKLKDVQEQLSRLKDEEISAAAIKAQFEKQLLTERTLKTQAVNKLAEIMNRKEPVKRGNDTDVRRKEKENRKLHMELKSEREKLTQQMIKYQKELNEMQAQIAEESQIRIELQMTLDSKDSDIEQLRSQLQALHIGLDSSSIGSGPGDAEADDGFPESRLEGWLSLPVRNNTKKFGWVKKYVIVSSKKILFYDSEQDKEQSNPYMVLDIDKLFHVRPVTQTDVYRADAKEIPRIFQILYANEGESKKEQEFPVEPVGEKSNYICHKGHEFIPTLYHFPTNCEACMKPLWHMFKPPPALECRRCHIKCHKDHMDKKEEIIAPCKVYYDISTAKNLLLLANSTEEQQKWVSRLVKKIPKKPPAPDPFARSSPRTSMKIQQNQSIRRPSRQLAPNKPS
T2 sequence (O75116 whole entry): as above

Row | SMILES | IC50 (ROCK II) [nM] | IC50 (ROCKα/ROCKII) [nM] | half-life at 1 μM [1] [min] | half-life at 1 μM [2] [min]
1 | NCc1ccc(C(=O)Nc2ccncc2F)cc1-c1cccc(CC(=O)OCCO)c1 [Compound 195] | 1000 to 10000 | – | – | –
2 | NCc1ccc(C(=O)Nc2ccncc2F)cc1-c1cccc(C(=O)OCC2CCC2)c1 [Compound 184] | 100 to 1000 | – | – | –
3 | NCc1ccc(C(=O)Nc2ccncc2F)cc1-c1cccc(C(=O)NC2CCSC2=O)c1 (centres unmarked) [Compound 179] | 100 to 1000 | – | – | –
4 | NCc1ccc(C(=O)Nc2ccncc2)cc1-c1cccc(C(=O)NCCC2COC(=O)O2)c1 (centres unmarked) [Compound 113, 6-Aminomethyl-biphenyl-3,3′-dicarboxylic acid 3′-{[2-(2-oxo-[1,3]dioxolan-4-yl)-ethyl]-amide} 3-pyridin-4-ylamide] | 100 to 1000 | – | – | –
5 | CCCOC(=O)c1cc2c(-c3cc(C(=O)Nc4ccncc4)ccc3C(C)N)cccc2[nH]1 (centres unmarked) [Compound 172, 4-[2-(1-Amino-ethyl)-5-(pyridin-4-ylcarbamoyl)-phenyl]-1H-indole-2-carboxylic acid propyl ester] | 100 to 1000 | 100 to 1000 | – | –
6 | N#CCCOC(=O)Cc1cccc(-c2cc(C(=O)Nc3ccncc3F)ccc2CN)c1 [Compound 194] | 1000 to 10000 | – | – | –
7 | NCc1ccc(C(=O)Nc2ccncc2F)cc1-c1cccc(C(=O)OCCF)c1 [Compound 178] | 100 to 1000 | – | – | –
8 | CC(N)c1ccc(C(=O)Nc2ccncc2F)cc1-c1cccc(C(=O)Oc2ccccc2)c1 (centres unmarked) [Compound 71, 2′-(1-Amino-ethyl)-5′-(3-fluoro-pyridin-4-ylcarbamoyl)-biphenyl-3-carboxylic acid phenyl ester] | 100 to 1000 | 100 to 1000 | – | –
9 | COC(=O)C1CCN(C(=O)c2cccc(-c3cc(C(=O)Nc4ccncc4)ccc3CN)c2)C1 (centres unmarked) [Compound 127, 1-[2′-Aminomethyl-5′-(pyridin-4-ylcarbamoyl)-biphenyl-3-carbonyl]-pyrrolidine-3-carboxylic acid methyl ester] | 1000 to 10000 | – | – | –
10 | CCSC(=O)COc1cccc(-c2cc(C(=O)Nc3ccncc3)ccc2CN)c1 [Compound 143, [2′-Aminomethyl-5′-(pyridin-4-ylcarbamoyl)-biphenyl-3-yloxy]-thioacetic acid S-ethyl ester] | 100 to 1000 | – | – | –
11 | COC(=O)c1cc(-c2cc(C(=O)Nc3ccncc3)ccc2C(C)N)c[nH]1 (centres unmarked) [Compound 168, 4-[2-(1-Amino-ethyl)-5-(pyridin-4-ylcarbamoyl)-phenyl]-1H-pyrrole-2-carboxylic acid methyl ester] | 100 to 1000 | 100 to 1000 | – | –
12 | NCc1ccc(C(=O)Nc2ccncc2)cc1-c1cccc(C(=O)Oc2ccccc2F)c1 [Compound 53, 2′-Aminomethyl-5′-(pyridin-4-ylcarbamoyl)-biphenyl-3-carboxylic acid 2-fluoro-phenyl ester] | 100 to 1000 | – | – | –
13 | CCCOC(=O)c1cccc(-c2cc(C(=O)Nc3ccncc3F)ccc2C(C)N)c1 (centres unmarked) [Compound 12, 2′-(1-Amino-ethyl)-5′-(3-fluoro-pyridin-4-ylcarbamoyl)-biphenyl-3-carboxylic acid propyl ester] | 100 to 1000 | < 100 | – | –
14 | CC(N)c1ccc(C(=O)Nc2ccncc2)cc1-c1cccc(CCC(=O)Oc2ccccc2)c1 (centres unmarked) [Compound 167, 3-[2′-(1-Amino-ethyl)-5′-(pyridin-4-ylcarbamoyl)-biphenyl-3-yl]-propionic acid phenyl ester] | 100 to 1000 | < 100 | – | –

Further lines, results first:

Row | IC50 (ROCK II) [nM] | IC50 (ROCKα/ROCKII) [nM] | half-life at 1 μM [1] [min] | half-life at 1 μM [2] [min] | SMILES
15 | < 100 | < 100 | – | – | CCCCOC(=O)c1cccc(-c2cc(C(=O)Nc3ccncc3)ccc2C(C)N)c1 (centres unmarked) [Compound 13, 2′-(1-Amino-ethyl)-5′-(pyridin-4-ylcarbamoyl)-biphenyl-3-carboxylic acid butyl ester]
16 | 100 to 1000 | 100 to 1000 | – | – | CC(C)COC(=O)c1cccc(-c2cc(C(=O)Nc3ccncc3F)ccc2C(C)N)c1 (centres unmarked) [Compound 28, 2′-(1-Amino-ethyl)-5′-(3-fluoro-pyridin-4-ylcarbamoyl)-biphenyl-3-carboxylic acid isobutyl ester]
17 | 100 to 1000 | < 100 | – | – | CC(N)c1ccc(C(=O)Nc2ccncc2)cc1-c1cccc(C(=O)OCCF)c1 (centres unmarked) [Compound 60, 2′-(1-Amino-ethyl)-5′-(pyridin-4-ylcarbamoyl)-biphenyl-3-carboxylic acid 2-fluoro-ethyl ester]
18 | < 100 | < 100 | – | – | CCOC(=O)c1cccc(-c2cc(C(=O)Nc3ccncc3)ccc2C(C)N)c1 (centres unmarked) [Compound 8, 2′-(1-Amino-ethyl)-5′-(pyridin-4-ylcarbamoyl)-biphenyl-3-carboxylic acid ethyl ester]
19 | < 100 | < 100 | – | – | CC(N)c1ccc(C(=O)Nc2ccncc2)cc1-c1cccc(C(=O)OCC2CCCO2)c1 (centres unmarked) [Compound 44, 2′-(1-Amino-ethyl)-5′-(pyridin-4-ylcarbamoyl)-biphenyl-3-carboxylic acid tetrahydro-furan-2-ylmethyl ester]
20 | 100 to 1000 | 100 to 1000 | – | – | CCCOC(=O)CCc1cccc(-c2cc(C(=O)Nc3ccncc3)ccc2C(C)N)c1 (centres unmarked) [Compound 166, 3-[2′-(1-Amino-ethyl)-5′-(pyridin-4-ylcarbamoyl)-biphenyl-3-yl]-propionic acid propyl ester]
21 | < 100 | 100 to 1000 | – | – | CC(N)c1ccc(C(=O)Nc2ccncc2)cc1-c1cccc(C(=O)OCCCOc2ccccc2)c1 (centres unmarked) [Compound 88, 2′-(1-Amino-ethyl)-5′-(pyridin-4-ylcarbamoyl)-biphenyl-3-carboxylic acid 3-phenoxy-propyl ester]
22 | 100 to 1000 | < 100 | – | – | CC(N)c1ccc(C(=O)Nc2ccncc2)cc1-c1cccc(OC2CCOC2=O)c1 (centres unmarked) [Compound 134, 6-(1-Amino-ethyl)-3′-(2-oxo-tetrahydro-furan-3-yloxy)-biphenyl-3-carboxylic acid pyridin-4-ylamide]
23 | 100 to 1000 | < 100 | – | – | CC(N)c1ccc(C(=O)Nc2ccncc2F)cc1-c1cccc(C(=O)OCC2CC2)c1 (centres unmarked) [Compound 37, 2′-(1-Amino-ethyl)-5′-(3-fluoro-pyridin-4-ylcarbamoyl)-biphenyl-3-carboxylic acid cyclopropylmethyl ester]
24 | < 100 | < 100 | – | – | CC(N)c1ccc(C(=O)Nc2ccncc2)cc1-c1cccc(C(=O)Oc2ccccc2)c1 (centres unmarked) [Compound 70, 2′-(1-Amino-ethyl)-5′-(pyridin-4-ylcarbamoyl)-biphenyl-3-carboxylic acid phenyl ester]
25 | 100 to 1000 | < 100 | – | – | COC(=O)c1cccc(-c2cc(C(=O)Nc3ccncc3F)ccc2C(C)N)c1 (centres unmarked) [Compound 5, 2′-(1-Amino-ethyl)-5′-(3-fluoro-pyridin-4-ylcarbamoyl)-biphenyl-3-carboxylic acid methyl ester]
26 | 100 to 1000 | – | 1.9 | < 1 | COC(=O)COc1cccc(-c2cc(C(=O)Nc3ccncc3)ccc2CN)c1 [Compound 137, [2′-Aminomethyl-5′-(pyridin-4-ylcarbamoyl)-biphenyl-3-yloxy]-acetic acid methyl ester]
27 | 100 to 1000 | 100 to 1000 | – | – | CC(N)c1ccc(C(=O)Nc2ccncc2)cc1-c1cccc(OCCCSC2CCOC2=O)c1 (centres unmarked) [Compound 131, 6-(1-Amino-ethyl)-3′-[3-(2-oxo-tetrahydro-furan-3-ylsulfanyl)-propoxy]-biphenyl-3-carboxylylic acid pyridin-4-ylamide]
28 | 100 to 1000 | < 100 | – | – | CC(N)c1ccc(C(=O)Nc2ccncc2)cc1-c1c[nH]c(C(=O)Oc2ccccc2)c1 (centres unmarked) [Compound 170, 4-[2-(1-Amino-ethyl)-5-(pyridin-4-ylcarbamoyl)-phenyl]-1H-pyrrole-2-carboxylic acid phenyl ester]
29 | 100 to 1000 | – | – | – | NCc1ccc(C(=O)Nc2ccncc2)cc1-c1cccc(C(=O)OC2CCC2)c1 [Compound 31, 2′-Aminomethyl-5′-(pyridin-4-ylcarbamoyl)-biphenyl-3-carboxylic acid cyclobutyl ester]
30 | < 100 | 100 to 1000 | – | – | CC(N)c1ccc(C(=O)Nc2ccncc2)cc1-c1cccc(C(=O)OCc2ccoc2)c1 (centres unmarked) [Compound 90, 2′-(1-Amino-ethyl)-5′-(pyridin-4-ylcarbamoyl)-biphenyl-3-carboxylic acid furan-3-ylmethyl ester]
31 | < 100 | – | – | – | COC(=O)CNC(=O)COc1cccc(-c2cc(C(=O)Nc3ccncc3)ccc2CN)c1 [Compound 147, {2-[2′-Aminomethyl-5′-(pyridin-4-ylcarbamoyl)-biphenyl-3-yloxy]-acetylamino}-acetic acid methyl ester]
32 | < 100 | < 100 | – | – | CCCOC(=O)c1cccc(-c2cc(C(=O)Nc3ccncc3)ccc2C(C)N)c1 (centres unmarked) [Compound 11, 2′-(1-Amino-ethyl)-5′-(pyridin-4-ylcarbamoyl)-biphenyl-3-carboxylic acid propyl ester]
33 | < 100 | < 100 | – | – | CC(N)c1ccc(C(=O)Nc2ccncc2)cc1-c1cccc(C(=O)OCC2CCCCO2)c1 (centres unmarked) [Compound 45, 2′-(1-Amino-ethyl)-5′-(pyridin-4-ylcarbamoyl)-biphenyl-3-carboxylic acid tetrahydro-pyran-2-ylmethyl ester]
